Source: patent US6346543B1, “Use of a taxoid to treat abnormal cell proliferation in the brain” (priority 1998, dated 2002)
Several values for one entry are separate records, joined by “and”; a condition that tells them apart may be missing. Equal values may be shown once.

Experiments:
[1] = test system: intracranially implanted human glioblastoma U251; assay: Antitumor activity against intracranially implanted U251 glioblastoma in NCr-nu mice (RP-36); format: in vivo; conditions: for DAYS OF DEATH: individual animals
Experimental: The treatment schedule of the intracranially implanted U251 glioblastoma cells was iv, once daily, every sixth day for three treatments (q6d×3), beginning on day four post-implant. […] For the intracranially implanted studies, the compounds were evaluated based on their ability to increase the life span of the animals. The positive control used for both of these tumor models was nitrosourea.
The oversight committee was the Southern Research Institutional Animal Care and Use Committee; the protocol used was IACUC No. 96-8-50.
Product (Ia) was prepared in 5% ethanol, 5% tween 80, 90% D5W
Product (Ia) was administered in 0.4 ml/mouse based on a total body weight average.
Nitrosourea was administered 0.1 ml/10 g of body weight.
Any intracranially implanted animal that appeared to be moribund was euthanized for humane purposes. Since efficacy studies fall within this category of basic research, experiment termination was based on resultants that were determined to be optimal.
Six to eight week old athymic NCr-nu female mice were used for the intracranially implanted U251 trials.
The cells were injected into the cerebrum to the right of the midline with a 25 gauge, ⅜ inch, stainless steel needle. Cultured cells were used for the U251 experiment (RP-36). The treatment schedule was q6d×3, iv, beginning on day four, post-implant. […] The treatment schedule was q4d×3, iv, beginning on day two, post-implant. Nitrosourea was given in each experiment for comparative purposes because of its known activity against CNS tumors.

[2] = Single i.v. bolus pharmacokinetic study in mice: plasma and brain levels by LC-MS/MS; format: in vivo, female C3H/HeN mice; conditions: mouse; for Plasma product (Ic) concentration: individual animals IV1-IV4
Experimental: Analytical Results Obtained from a Single i.v. Bolus Pharmacokinetic Study in Mice.
Groups of female C3H/HeN mice received the product by an intravenous route as a bolus at a dose level of 40 mg.kg^−1, equivalent to 120 mg.m^−2. Blood and brain samples were obtained from all dosed animals sacrificed at intervals up to 72 hours post dose. Brain and corresponding plasma samples were assayed for product (Ia) content by an LC-MS/MS assay.
2.25 mg.ml^−1 solution containing 5% Polysorbate 80, 5% ethanol, and 90% of an aqueous 5% glucose solution.
Fifty-six female C3H/HeN mice, each weighing ca 20 g, were each administered formulated product II by i.v. bolus via the tail vein at an injection volume of 0.4 ml to give a total dose of 40 mg.kg^−1.
Blood by cardiac puncture, and liver and brain by dissection after CO2 sacrifice.
Whole blood was collected in heparinised tubes, and corresponding plasma samples were obtained by centrifugation, and frozen immediately at −20° C. Tissues were blotted, weighed, and frozen immediately at −20° C. All samples were dispatched frozen for analysis. Upon receipt, samples were stored frozen at approximately −18° C. pending analysis.
LC-MS/MS (Sciex API III plus) in turbo-ionspray mode.
75×4.6 mm Supelcosil ABZ plus (3 μm).
Acetonitrile/methanol/ammonium acetate (10 mM); 40/25/35 v/v/v.
Plasma: Added 100 μl of acetonitrile to sample (50 μl). Vortexed, centrifuged, removed supernatant, added 100 μl of mobile phase and injected 150 μl .
Brain: Added 100 μl of acetonitrile to homogenised sample (100 mg of a 1:1 w/w brain with water homogenate) and vortexed. Added 1 ml of diethyl ether, vortexed, centrifuged, removed organic layer, and dried under N2. Reconstituted in 200 μl of mobile phase and injected 150 μl.
Plasma: Nine at concentrations of 5, 10, 20, 50, 100, 200, 300, 400 & 500 ng.ml^−1 (product Ia). Prepared by adding suitable aliquots of the product (concentrations =0.1, 1 or 10 μg.ml^−1) in ethanol to 0.5 ml aliquots of mouse plasma. Each sample was vortexed following drug addition; a 50 μl aliquot was then removed for assay.
Brain: Eleven at concentrations of 10, 20, 30, 100, 200, 300, 400, 500, 1000, 2500 & 5000 ng.g^−1 in homogenised mouse brain (1:1 w/w brain with water). Prepared by adding suitable aliquots of the product (concentrations=1, 10 or 100 μg.ml-^−1) in ethanol to 0.5, 1, 3 or 4 g of homogenised mouse brain. Each sample was vortexed following drug addition and a 100 mg aliquot was then removed for assay.
A biexponential equation was fitted to the profiles using an interactive linear least-square algorithm as part of the SIPHAR package.

[3] = 13.4 mg/kg/dose IV Q6D×3(4), listed as Product I(a)
[4] = 13.4 mg/kg/dose IV Q6D×3(4), listed as product (Ia)
[5] = 20.0 mg/kg/dose IV Q6D×3(4), listed as Product I(a)
[6] = 20.0 mg/kg/dose IV Q6D×3(4), listed as product (Ia)
[7] = 30.0 mg/kg/dose IV Q6D×3(4), listed as Product I(a)
[8] = 30.0 mg/kg/dose IV Q6D×3(4), listed as product (Ia)
[9] = plasma, i.v. 40 mg.kg^−1, calculated from values ≧b.l.q. of 20 ng.ml^−1
[10] = plasma, i.v. 40 mg.kg^−1, calculated from values ≧l.o.d. of 4 ng.ml^−1

CO[C@H]1C(=O)[C@]2(C)[C@@H](OC)C[C@H]3OC[C@@]3(OC(C)=O)[C@H]2[C@H](OC(=O)c2ccccc2)[C@]2(O)C[C@H](OC(=O)[C@H](O)[C@@H](NC(=O)OC(C)(C)C)c3ccccc3)C(C)=C1C2(C)C [Product (Ia), 4α-acetoxy-2α-benzoyloxy-5β, 20-epoxy-1β-hydroxy-7β, 10β-dimethoxy-9-oxo-11-taxen-13α-yl (2R,3S)-3 tert-butoxycarbonylamino-2-hydroxy-3-phenylpropionate]
MEDIAN DAY OF DEATH ([1]; 13.4 mg/kg/dose IV Q6D×3(4)): 83.0 days
DAYS OF DEATH ([1]; 13.4 mg/kg/dose IV Q6D×3(4)): 69 day (2×) and 83 day (4×) and 122 day
122-DAY SURV./TOTAL [1, 3]: 3/10
% ILS [1, 3]: +144%
122-DAY SURV./TOTAL [1, 4]: three of ten
% ILS [1, 4]: 144%
MEDIAN DAY OF DEATH ([1]; 20.0 mg/kg/dose IV Q6D×3(4)): 103.0 days
DAYS OF DEATH ([1]; 20.0 mg/kg/dose IV Q6D×3(4)): 58 day and 98 day and 100 day and 106 day (2×) and 122 day
122-DAY SURV./TOTAL [1, 5]: 4/10
% ILS [1, 5]: +202%
122-DAY SURV./TOTAL [1, 6]: four of ten
% ILS [1, 6]: 202%
MEDIAN DAY OF DEATH ([1]; 30.0 mg/kg/dose IV Q6D×3(4)): 94.0 days
DAYS OF DEATH ([1]; 30.0 mg/kg/dose IV Q6D×3(4)): 21 days and 34 days and 94 days and 98 days and 103 days
122-DAY SURV./TOTAL [1, 7]: 5/10
% ILS [1, 7]: +176%
122-DAY SURV./TOTAL [1, 8]: five of ten
% ILS [1, 8]: 176%
activity against intracranially implanted U251 glioblastoma ([1]; iv q6d×3): quite active
MTD ([1]; iv q6d×3, U251 experiment RP-36): 20 mg/kg/dose
AUC0-72h ([2]; brain, i.v. 40 mg.kg^−1): *the corresponding AUC0-72h = 549.7 h.μg.g^−1
Terminal T½ ([2]; brain, i.v. 40 mg.kg^−1): 31.4 h
AUC0-∞ ([2]; brain, i.v. 40 mg.kg^−1, mean data, extrapolated from 72 h, listed as product (Ic)): 787.g* h.μg.g^−1
Mean total plasma clearance ([2]; i.v. 40 mg.kg^−1): 1.3 I.h^−1.kg^−1
levels in the brain relative to those in the plasma (on the basis of AUC0∞ values) ([2]; i.v. 40 mg.kg^−1): about twenty
time post dose up to which plasma levels persisted above the limit of accurate quantification (20 ng.ml^−1) ([2]; i.v. 40 mg.kg^−1): up to 14 h
time post dose up to which plasma levels were consistently above the limit of detection (4 ng.ml^−1) ([2]; i.v. 40 mg.kg^−1): up to 24 h
Plasma product (Ic) concentration ([2]; i.v. 40 mg.kg^−1, 2 min after dose): 52987 ng/mL and 45942 ng/mL and 49607 ng/mL and 38994 ng/mL
Plasma product (Ic) concentration, MEAN ([2]; i.v. 40 mg.kg^−1, 2 min after dose, mean of IV1-IV4): 46882 ng/mL
Plasma product (Ic) concentration ([2]; i.v. 40 mg.kg^−1, 5 min after dose): 36734 ng/mL and 33538 ng/mL and 32077 ng/mL and 34903 ng/mL
Plasma product (Ic) concentration, MEAN ([2]; i.v. 40 mg.kg^−1, 5 min after dose, mean of IV1-IV4): 34313 ng/mL
Plasma product (Ic) concentration ([2]; i.v. 40 mg.kg^−1, 15 min after dose): 20493 ng/mL and 20897 ng/mL and 21051 ng/mL and 19459 ng/mL
Plasma product (Ic) concentration, MEAN ([2]; i.v. 40 mg.kg^−1, 15 min after dose, mean of IV1-IV4): 20475 ng/mL
Plasma product (Ic) concentration ([2]; i.v. 40 mg.kg^−1, 0.5 h after dose): 10765 ng/mL and 10344 ng/mL and 9170 ng/mL and 11232 ng/mL
Plasma product (Ic) concentration, MEAN ([2]; i.v. 40 mg.kg^−1, 0.5 h after dose, mean of IV1-IV4): 10378 ng/mL
Plasma product (Ic) concentration ([2]; i.v. 40 mg.kg^−1, 0.75 h after dose): 7133 ng/mL and 10948 ng/mL and 8121 ng/mL and 10148 ng/mL
Plasma product (Ic) concentration, MEAN ([2]; i.v. 40 mg.kg^−1, 0.75 h after dose, mean of IV1-IV4): 9087 ng/mL
Plasma product (Ic) concentration ([2]; i.v. 40 mg.kg^−1, 1 h after dose): 6017 ng/mL and 7423 ng/mL and 6693 ng/mL and 6079 ng/mL
Plasma product (Ic) concentration, MEAN ([2]; i.v. 40 mg.kg^−1, 1 h after dose, mean of IV1-IV4): 6553 ng/mL
Plasma product (Ic) concentration ([2]; i.v. 40 mg.kg^−1, 4 h after dose): 1072 ng/mL and 1110 ng/mL and 835 ng/mL and 830 ng/mL
Plasma product (Ic) concentration, MEAN ([2]; i.v. 40 mg.kg^−1, 4 h after dose, mean of IV1-IV4): 962 ng/mL
Plasma product (Ic) concentration ([2]; i.v. 40 mg.kg^−1, 6 h after dose): 449 ng/mL and 316 ng/mL and 346 ng/mL and 336 ng/mL
Plasma product (Ic) concentration, MEAN ([2]; i.v. 40 mg.kg^−1, 6 h after dose, mean of IV1-IV4): 362 ng/mL
Plasma product (Ic) concentration ([2]; i.v. 40 mg.kg^−1, 8 h after dose): 204 ng/mL and 199 ng/mL and 195 ng/mL and 154 ng/mL
Plasma product (Ic) concentration, MEAN ([2]; i.v. 40 mg.kg^−1, 8 h after dose, mean of IV1-IV4): 188 ng/mL
Plasma product (Ic) concentration ([2]; i.v. 40 mg.kg^−1, 14 h after dose): 65 ng/mL and 56 ng/mL and 50 ng/mL and 52 ng/mL
Plasma product (Ic) concentration, MEAN ([2]; i.v. 40 mg.kg^−1, 14 h after dose, mean of IV1-IV4): 56 ng/mL
Plasma product (Ic) concentration ([2]; i.v. 40 mg.kg^−1, 24 h after dose, blq = below limit of accurate quantification (20 ng.ml^−1)): ~18(blq) ng.ml^−1 and ~15(blq) ng.ml^−1 (2×) and ~16(blq) ng.ml^−1
Plasma product (Ic) concentration, MEAN ([2]; i.v. 40 mg.kg^−1, 24 h after dose, mean of IV1-IV4 (all blq)): 16 ng/mL
Plasma product (Ic) concentration ([2]; i.v. 40 mg.kg^−1, 48 h after dose, n.d. = not detected (≦l.o.d. of 4 ng.ml^−1)): ~4(blq) ng.ml^−1
Plasma product (Ic) concentration, MEAN ([2]; i.v. 40 mg.kg^−1, 48 h after dose, mean of IV1-IV4 (blq / n.d.)): 2 ng/mL
brain level, peak ([2]; i.v. 40 mg.kg^−1, at 14 h): 9.1 µg/g
brain level ([2]; i.v. 40 mg.kg^−1, last sampling time, 72 h): 5.3 µg/g
plasma level, peak (mean) ([2]; i.v. 40 mg.kg^−1, peak at 2 minutes): 46900 ng/mL
Plasma product (Ic) concentration ([2]; i.v. 40 mg.kg^−1, time after dose printed as — (between 1 h and 4 h)): 4633 ng/mL and 4337 ng/mL and 4600 ng/mL and 3564 ng/mL
Plasma product (Ic) concentration, MEAN ([2]; i.v. 40 mg.kg^−1, time after dose printed as — (between 1 h and 4 h), mean of IV1-IV4): 4283 ng/mL
plasma level ([2]; i.v. 40 mg.kg^−1, within 4 h): less than 1 μg.ml^−1
penetration of the blood brain barrier ([2]; post-i.v. administration): appeared to readily penetrate the blood brain barrier
ClT (total plasma clearance) [2, 9]: 1.3 1.h^−1.kg^−1
Initial T½ [2, 9]: 0.2 h
Terminal T½ [2, 9]: 2.0 h
Vdss [2, 9]: 2.4 1.kg^−1
ClT (total plasma clearance) [2, 10]: 1.3 1.h^−1.kg^−1
Initial T½ [2, 10]: 0.7 h
Terminal T½ [2, 10]: 6.2 h
Vdss [2, 10]: 1.9 1.kg^−1
